Experimental data as given in patent US12077503B2, “Substituted cyclic amides and their use as herbicides” (FMC CORPORATION, priority 2015, dated 2024).

How the values were obtained:
Assay type in all cases: in vivo
[1] = test system: barnyardgrass (Echinochloa crus-galli); test: Test B flooded paddy test; details: Echinochloa crus-galli, 250 g ai/ha, Flood; 0 to 100 scale where 0 is no effect and 100 is complete control; read-out: Barnyardgrass plant response rating
Outline: (§1)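 Percent control, visually estimated after 13–15 d in the greenhouse on a 0–100 basis, compares treated pots with untreated ones; compound was put into paddy water 3 cm above the soil when plants had two leaves.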

[2] = test system: ducksalad (Heteranthera limosa); test: Test B flooded paddy test; details: Heteranthera limosa, 250 g ai/ha, Flood; 0 to 100 scale where 0 is no effect and 100 is complete control; read-out: Ducksalad plant response rating
Outline: as §1

rice (Oryra sativa) = test: Test B flooded paddy test; details: Oryza sativa, 250 g ai/ha, Flood; 0 to 100 scale where 0 is no effect and 100 is complete control; read-out: Rice plant response rating
Outline: as §1

[3] = test system: sedge, umbrella (small-flower umbrella sedge, Cyperus difformis); test: Test B flooded paddy test; details: Cyperus difformis, 250 g ai/ha, Flood; 0 to 100 scale where 0 is no effect and 100 is complete control; read-out: Sedge, Umbrella plant response rating
Outline: as §1

[4] = test system: pigweed (Amaranthus retroflexus); test: Test A preemergence; details: Amaranthus retroflexus, pre-emergence, 240 h, Preemergence
[5] = test system: ragweed (common ragweed, Ambrosia elatior); test: Test A preemergence; details: Ambrosia artemisiifolia, pre-emergence, 240 h, Preemergence
Outline: (§2)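 Visual injury scores from 0, no effect, to 100, complete control, were assigned versus untreated controls roughly 10 d after treatment in the greenhouse. Test chemicals, formulated with surfactant in a non-phytotoxic solvent, were applied to planted seeds as a preemergence soil spray or postemergence to one- to two-leaf plants 2 to 10 cm tall, in loam–sand soil.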

[6] = test system: barnyardgrass (Echinochloa crus-galli); test: Test A preemergence; details: Echinochloa crus-galli, pre-emergence, 240 h, Preemergence
Outline: as §2

Kochia (Kochia scoparia) [7] = test: Test A preemergence; details: Bassia scoparia, pre-emergence, 240 h, Preemergence
Outline: as §2

[8] = test system: giant foxtail (Setaria faberii); test: Test A preemergence; details: Setaria faberi, pre-emergence, 240 h, Preemergence
Outline: as §2

[9] = test system: ryegrass, Italian (Italian ryegrass, Lolium multiflorum); test: Test A preemergence; details: Lolium multiflorum, pre-emergence, 240 h, Preemergence
Outline: as §2

[10] = test system: pigweed (Amaranthus retroflexus); test: Test A postemergence; details: Amaranthus retroflexus, post-emergence, 240 h, Postemergence, read-out: Plant response rating, Pigweed
Outline: as §2

[11] = test system: ragweed (common ragweed, Ambrosia elatior); test: Test A postemergence; details: Ambrosia artemisiifolia, post-emergence, 240 h, Postemergence, read-out: Plant response rating, Ragweed
Outline: as §2

[12] = test system: barnyardgrass (Echinochloa crus-galli); test: Test A postemergence; details: Echinochloa crus-galli, post-emergence, 240 h, Postemergence, read-out: Plant response rating, Barnyardgrass
Outline: as §2

Kochia (Kochia scoparia) [13] = test: Test A postemergence; details: Bassia scoparia, post-emergence, 240 h, Postemergence, read-out: Plant response rating, Kochia
Outline: as §2

[14] = test system: wheat (Triticum aestivum); test: Test A postemergence; details: Triticum aestivum, post-emergence, 240 h, Postemergence, read-out: Plant response rating, Wheat
Outline: as §2

[15] = test system: Galium (catchweed bedstraw, Galium aparine); test: Test A postemergence; details: Galium, post-emergence, 240 h, Postemergence, read-out: Plant response rating, Galium
Outline: as §2

[16] = test system: giant foxtail (Setaria faberii); test: Test A postemergence; details: Setaria faberi, post-emergence, 240 h, Postemergence, read-out: Plant response rating, Foxtail, Giant
Outline: as §2

[17] = test system: blackgrass (Alopecurus myosuroides); test: Test A postemergence; details: Alopecurus myosuroides, post-emergence, 240 h, Postemergence, read-out: Plant response rating, Blackgrass
Outline: as §2

[18] = test system: ryegrass, Italian (Italian ryegrass, Lolium multiflorum); test: Test A postemergence; details: Lolium multiflorum, post-emergence, 240 h, Postemergence, read-out: Plant response rating, Ryegrass, Italian
Outline: as §2

corn (Zea mays) = test: Test A postemergence; details: Zea mays, post-emergence, 240 h, Postemergence
Outline: as §2

[19] = 125 g ai/ha, visual injury after approximately 10 d, 0 to 100 scale where 0 is no effect and 100 is complete control
[20] = 31 g ai/ha, visual injury after approx. 10 d, 0 to 100 scale, 0 no effect, 100 complete control

CC(C)=CC1CNC(=O)C1C(=O)Nc1ccccc1F (stereo not drawn) [Compound 1011]
0%: pest or weed control at 250 g/ha [1] | pest or weed control at 250 g/ha [2] | pest or weed control at 250 g/ha (rice (Oryra sativa)) | pest or weed control at 250 g/ha [3] | pest or weed control at 31 g/ha ([4]; 31 g ai/ha, 0 to 100 scale where 0 is no effect and 100 is complete control, read-out: Pigweed plant response rating) | pest or weed control at 125 g/ha ([4]; 125 g ai/ha, visual injury rating after approximately 10 d, read-out: Pigweed plant response rating (0 to 100 scale, 0 is no effect, 100 is complete control)) | pest or weed control at 31 g/ha ([5]; 31 g ai/ha, 0 to 100 scale where 0 is no effect and 100 is complete control, read-out: Ragweed plant response rating) | pest or weed control at 125 g/ha ([5]; 125 g ai/ha, visual injury rating after approximately 10 d, read-out: Ragweed plant response rating (0 to 100 scale, 0 is no effect, 100 is complete control)) | pest or weed control at 125 g/ha ([6]; 125 g ai/ha, visual injury rating after approximately 10 d, read-out: Barnyardgrass plant response rating (0 to 100 scale, 0 is no effect, 100 is complete control)) | pest or weed control at 31 g/ha ([6]; 31 g ai/ha, 0 to 100 scale (0 no effect, 100 complete control), read-out: Plant response rating, Barnyardgrass) | pest or weed control at 31 g/ha (Kochia (Kochia scoparia) [7]; 31 g ai/ha, 0 to 100 scale where 0 is no effect and 100 is complete control, read-out: Kochia plant response rating) | pest or weed control at 125 g/ha (Kochia (Kochia scoparia) [7]; 125 g ai/ha, visual injury rating after approximately 10 d, read-out: Kochia plant response rating (0 to 100 scale, 0 is no effect, 100 is complete control)) | pest or weed control at 125 g/ha ([8]; 125 g ai/ha, visual injury rating after approximately 10 d, read-out: Foxtail, Giant plant response rating (0 to 100 scale, 0 is no effect, 100 is complete control)) | pest or weed control at 31 g/ha ([8]; 31 g ai/ha, 0 to 100 scale (0 no effect, 100 complete control), read-out: Plant response rating, Foxtail, Giant) | pest or weed control at 31 g/ha ([9]; 31 g ai/ha, 0 to 100 scale where 0 is no effect and 100 is complete control, read-out: Ryegrass, Italian plant response rating) | pest or weed control at 125 g/ha ([9]; 125 g ai/ha, visual injury rating after approximately 10 d, read-out: Ryegrass, Italian plant response rating (0 to 100 scale, 0 is no effect, 100 is complete control)) | pest or weed control at 125 g/ha [10, 19] | pest or weed control at 31 g/ha [10, 20] | pest or weed control at 125 g/ha [11, 19] | pest or weed control at 31 g/ha [11, 20] | pest or weed control at 125 g/ha [12, 19] | pest or weed control at 31 g/ha [12, 20] | pest or weed control at 125 g/ha (Kochia (Kochia scoparia) [13]; [19]) | pest or weed control at 31 g/ha (Kochia (Kochia scoparia) [13]; [20]) | plant injury at 125 g/ha [14, 19] | plant injury at 31 g/ha [14, 20] | pest or weed control at 125 g/ha [15, 19] | pest or weed control at 31 g/ha [15, 20] | pest or weed control at 125 g/ha [16, 19] | pest or weed control at 31 g/ha [16, 20] | pest or weed control at 125 g/ha [17, 19] | pest or weed control at 31 g/ha [17, 20] | pest or weed control at 125 g/ha [18, 19] | pest or weed control at 31 g/ha [18, 20] | Corn plant response rating (crop injury, 0 = no effect, 100 = complete kill) at 125 g/ha (corn (Zea mays); [19]) | Corn plant response rating (crop injury, 0 = no effect, 100 = complete kill) at 31 g/ha (corn (Zea mays); [20])
